In US9873709B2 (priority 2013, dated 2018):

System: JAK1-dependent STAT6 phosphorylation downstream of IL-13 stimulation in TF-1 human erythroleukemia cells
Assay: cells
Settings: TF-1, read-out: IL-13-pSTAT6 IC50

Row | Compound | IC50 [nM]
1 | CN(C)c1ccc(C2CCCN(C(=O)c3ccc(Nc4nc5c(C6=CCN(C(=O)CCC(F)(F)F)CC6)cccn5n4)cc3)C2)nc1 (centres unmarked) [Example 2-51, 1-[4-[2-[4-[3-[5-(dimethylamino)-2-pyridyl]piperidine-1-carbonyl]anilino]-[1,2,4]triazolo[1,5-a]pyridin-8-yl]-3,6-dihydro-2H-pyridin-1-yl]-4,4,4-trifluoro-butan-1-one] | 70.2
2 | CN1CCC(N(C)C(=O)c2ccc(Nc3nc4c(C5=CCN(CC#N)CC5)cccn4n3)cc2)CC1 [Example 2-52, 4-[[8-[1-(cyanomethyl)-3,6-dihydro-2H-pyridin-4-yl]-[1,2,4]triazolo[1,5-a]pyridin-2-yl]amino]-N-methyl-N-(1-methyl-4-piperidyl)benzamide] | 60
3 | CCOC(=O)N1CC=C(c2cccn3nc(Nc4ccc(C(=O)NC5CCN(C)CC5)cc4)nc23)CC1 [Example 2-60, ethyl 4-[2-[4-[(1-methyl-4-piperidyl)carbamoyl]anilino]-[1,2,4]triazolo[1,5-a]pyridin-8-yl]-3,6-dihydro-2H-pyridine-1-carboxylate] | 20.4
4 | CCOC(=O)N1CC=C(c2cccn3nc(Nc4ccc(C(=O)N5CCC(c6ccncc6)C5)cc4)nc23)CC1 (centres unmarked) [Example 2-62, ethyl 4-[2-[4-[3-(4-pyridyl)pyrrolidine-1-carbonyl]anilino]-[1,2,4]triazolo[1,5-a]pyridin-8-yl]-3,6-dihydro-2H-pyridine-1-carboxylate] | 30
5 | CCOC(=O)N1CC=C(c2cccn3nc(Nc4ccc(C(=O)N5CCCC5c5ccc(C)cn5)cc4)nc23)CC1 (centres unmarked) [Example 2-67, ethyl 4-[2-[4-[2-(5-methyl-2-pyridyl)pyrrolidine-1-carbonyl]anilino]-[1,2,4]triazolo[1,5-a]pyridin-8-yl]-3,6-dihydro-2H-pyridine-1-carboxylate] | 40.9
6 | CCOC(=O)N1CC=C(c2cccn3nc(Nc4ccc(C(=O)N5Cc6cccnc6C5)cc4)nc23)CC1 [Example 2-70, ethyl 4-[2-[4-(5,7-dihydropyrrolo[3,4-b]pyridine-6-carbonyl)anilino]-[1,2,4]triazolo[1,5-a]pyridin-8-yl]-3,6-dihydro-2H-pyridine-1-carboxylate] | 29.8
7 | CCOC(=O)N1CC=C(c2cccn3nc(Nc4ccc(C(=O)N5CC6(CNC6)C5)cc4)nc23)CC1 [Example 2-77, ethyl 4-[2-[4-(2,6-diazaspiro[3.3]heptane-2-carbonyl)anilino]-[1,2,4]triazolo[1,5-a]pyridin-8-yl]-3,6-dihydro-2H-pyridine-1-carboxylate] | 134

Now those with a lower IC50, led by results:

Row | IC50 [nM] | Compound
8 | 18.9 | CCOC(=O)N1CC=C(c2cccn3nc(Nc4ccc(C(=O)N5CC(N)C5)cc4)nc23)CC1 [Example 2-74, ethyl 4-[2-[4-(3-aminoazetidine-1-carbonyl)anilino]-[1,2,4]triazolo[1,5-a]pyridin-8-yl]-3,6-dihydro-2H-pyridine-1-carboxylate]
9 | 16.3 | CN1CCC(N(C)C(=O)c2ccc(Nc3nc4c(C5=CCN(C(=O)CC(C)(C)C)CC5)cccn4n3)cc2)CC1 [Example 2-54, 4-[[8-[1-(3,3-dimethylbutanoyl)-3,6-dihydro-2H-pyridin-4-yl]-[1,2,4]triazolo[1,5-a]pyridin-2-yl]amino]-N-methyl-N-(1-methyl-4-piperidyl)benzamide]
10 | 11.9 | CCOC(=O)N1CC=C(c2cccn3nc(Nc4ccc(C(=O)N5CC6(CCN(C)C6)C5)cc4)nc23)CC1 [Example 2-68, ethyl 4-[2-[4-(7-methyl-2,7-diazaspiro[3.4]octane-2-carbonyl)anilino]-[1,2,4]triazolo[1,5-a]pyridin-8-yl]-3,6-dihydro-2H-pyridine-1-carboxylate]
11 | 10 | CCOC(=O)N1CC=C(c2cccn3nc(Nc4ccc(C(=O)N5CC(NC)C5)cc4)nc23)CC1 [Example 2-55, Ethyl 4-[2-[4-[3-(methylamino)azetidine-1-carbonyl]anilino]-[1,2,4]triazolo[1,5-a]pyridin-8-yl]-3,6-dihydro-2H-pyridine-1-carboxylate]
